Experimental data: article PMC9440176, “Novel benzylidene benzofuranone analogues as potential anticancer agents: design, synthesis and in vitro evaluation based on CDK2 inhibition assays” (3 Biotech, 2022)

Key:
[1] = DPPH. free radical scavenging assay
Experimental: DPPH. assay was performed using 96-well plate by serial dilution method. The dilution of methanolic stock solution of the test compounds and standard anti-oxidants was carried out to obtain concentration in the range of 3.9–1000 µM. Quercetin and ascorbic acid were used as standards. To a 100 μL of this solution, 100 μL of 200 µM DPPH^. in methanolic solution was added. The experiment was done in triplicate and the plate was then incubated for 30 min in the dark and later the absorbance was measured at 517 nm using Elisa reader. The percentage DPPH^. Scavenging was calculated using the formula, (Control Absorbance–Test Absorbance)*100/(Control Absorbance). The anti-oxidant activity of the test compounds was expressed in terms of concentration required for 50 percentage inhibition (IC50) (Collins [2005]).

[2] = ABTS.+ radical scavenging assay
Experimental: The assay was performed in a 96-well plate by serial dilution method. A 2 mM ABTS^.+ working solution was prepared in a phosphate buffer (Zheleva-Dimitrova et al [2010]).To this, 200 μL of aqueous potassium per sulfate (70 mM) solution was added and the solution was incubated for 24 h in the dark at room temperature to develop a blue-green color. To 30 μL of ABTS^.+ working solution, 50 μL of different concentrations (3.9–1000 μM) of the test sample solution and 170 μL of phosphate buffer (pH-7.4) were added in a well. The plate was then incubated in the dark at room temperature for 10 min. Then absorbance was measured at 690 nm using Elisa reader. Quercetin and ascorbic acid were used as standards. The percentage scavenging of ABTS^.+ was calculated using the formula, (Control Absorbance–Test Absorbance)*100/(Control Absorbance) and the anti-oxidant activity was expressed in terms of IC50 value.

CDK2/Cyclin A = CDK2/Cyclin A (Homo sapiens, UniProt P24941); assay: CDK2/cyclin A inhibitory assay, Z'-LYTE FRET kinase assay; format: biochemical; details: concentration of 100 micro molar; 1000 ng/ml kinase, 1000 µM ATP
Source text: Z’-LYTE® technology involves homogeneous assay design based on FRET and is a universal platform for both screening as well as profiling protein kinases. The assay uses a peptide substrate labeled with two different fluorophores, coumarin donor and fluorescein acceptor on each end. These two fluorophores make up a FRET pair, which allows the transfer of energy when both are present on the same molecule. The initial kinase reaction transfers the ϒ-phosphate of ATP to a tyrosine or serine/threonine residue on the substrate. In a secondary reaction, referred to as the development reaction, a site-specific protease recognizes and cleaves only non-phosphorylated peptide, while phosphorylated substrate remains uncleaved. […] Upon excitation of Coumarin at 400 nm, the FRET signal is measured as a ratio between the Coumarin donor emission at 445–460 nm and the fluorescein acceptor emission at 520–535 nm(Lebakken et al. [2007]).
Initial ten-fold and two-fold dilutions of Kinase and ATP concentrations were used to choose the optimal Kinase and ATP concentration based on the % Phosphorylation.
The assay was carried out according to the kit instructions (384 well format). Briefly, 5X kinase buffer [250 mM HEPES (pH 7.5), 50 mM MgCl2, 5 mM EGTA, 0.05% BRIJ-35] was diluted to 1X using distilled water. The phosphor peptide positive control (Z’-LYTE® Tyr 4 phospho-peptide) and the non-phosphorylated negative control (Z’-LYTE® Tyr 4 peptide) were then diluted to 1:500 with 1× kinase buffer to 2 μM. […] Working development solution was then made by diluting 12 μL of the provided stock solution with 388 μL of the provided development buffer. Aliquots (20 μL) of each peptide mixture were then added to the wells of a Corning 3914 solid white microplate in replicates of 8. The development reaction was initiated by the addition of 10 μL of working development-solution to all the wells. Further, the plates were allowed to incubate at room temperature for 60 min. Reactions were then stopped by the addition of 10 μL of stop solution (Jia et al. [2008]).
Reactions were quantitated using a Tecan Robotic Microplate Reader. Reader control, blank subtraction, ratio metric calculations and finally graph plotting were carried out using Gen5™ Data Analysis Software.
The CDK2/Cyclin A assay was carried out as per the manufacturer’s instruction using suitable controls and standard.
The inhibitory assay was carried out using the stock of 10 mM in DMSO. Samples were further serially diluted to obtain concentrations of 100 μM. The concentrations were chosen based on the IC50 values obtained in the MTT assay. A total of 23 analogues were selected for the assay based on their antiproliferative activity. Further, selected compounds were screened and tested against the target CDK2/Cyclin A, and their % phosphorylation and % inhibition were recorded.

MCF-7 = assay: MTT cytotoxicity assay on MCF-7; format: cell-based; details: 24 h, read-out: Inhibition of cell proliferation, IC50, MCF-7
Experimental: (§1) The monolayer cell culture was trypsinized and the cell count was adjusted to 5.0 × 10^5 cells/ml using respective media containing 10% FBS. To each well of the 96-well microtiter plate, 100 µL of the diluted cell suspension (50,000cells/well) was added. After 24 h, when a partial monolayer was formed, the supernatant was flicked off, the monolayer was then washed once again with the medium and 100 µL of different test concentrations of test drugs were added on to the partial monolayer in microtiter plates. The plates were then incubated at 37 °C for 24 h in 5% CO2 atmosphere. After incubation, the test solutions in the wells were discarded and 100 µL of MTT (5 mg/10 ml of MTT in PBS) was added to each well. The plates were then incubated for 4 h at 37 °C in 5% CO2 atmosphere. The supernatant was then removed and 100 µL of DMSO was added and the plates were gently shaken to solubilize the formed formazan. The absorbance was measured using a microtiter plate reader at a wavelength of 590 nm. The percentage growth inhibition was thus calculated using the following formula and the concentration of the test drug required to inhibit the cell growth by 50% (IC50) values is generated from the dose–response curves for each one of the cell lines (Meerloo et al. [2011]).
(§2) The test compounds were screened for their in vitro cytotoxicity by MTT assay against two cancer cell lines, namely MCF-7, HCT-116 and normal epithelial kidney cells (Vero). Doxorubicin was used as a reference standard.

HCT 116 = assay: MTT cytotoxicity assay on HCT 116; format: cell-based, Human; details: 24 h, read-out: Inhibition of cell proliferation, IC50, HCT 116
Experimental: as §1, §2

[3] = system: normal epithelial kidney cells (Vero); assay: MTT cytotoxicity assay on Vero; format: cell-based; details: 24 h, read-out: Inhibition of cell proliferation, IC50, Vero
Experimental: as §1, §2

Compound	IC50 [1] [µM]	IC50 [2] [µM]	% inhibition on CDK2/cyclin A (CDK2/Cyclin A) [%]	IC50 (MCF-7) [µM]	IC50 (HCT 116) [µM]	IC50 [3] [µM]
O=C1O[C@H]([C@@H](O)CO)C(O)=C1O [Ascorbic acid, reference compound]	18.5 ± 1.38	24.1 ± 1.23	–	–	–	–
CCN1CC=C(c2c(OC)cc(OC)c3c2O/C(=C\c2ccc4ccccc4c2)C3=O)CC1 [NEA1]	141 ± 13.9	120.9 ± 1.08	32.676	57.9	68.6	–
CCN1CC=C(c2c(OC)cc(OC)c3c2O/C(=C\c2ccccc2OC)C3=O)CC1 [NEA2]	220 ± 2.77	179 ± 6	28.008	49.1	56.7	–
CCN1CC=C(c2c(OC)cc(OC)c3c2O/C(=C\c2ccccc2Br)C3=O)CC1 [NEA3]	85.5 ± 6.87	67.1 ± 3.2	35.559	28.1	33	–
CCN1CC=C(c2c(OC)cc(OC)c3c2O/C(=C\c2ccc(Br)cc2)C3=O)CC1 [NEA4]	94.7 ± 4.9	71.67 ± 0.34	27.236	82.7	93.6	188
CCN1CC=C(c2c(OC)cc(OC)c3c2O/C(=C\c2ccc(OC)c(OC)c2)C3=O)CC1 [NEA5]	339 ± 9.65	> 1000	26.007	135	175	177
CCN1CC=C(c2c(OC)cc(OC)c3c2O/C(=C\c2ccc(Cl)cc2)C3=O)CC1 [NEA6]	223 ± 4.87	198.18 ± 0.08	25.879	95.4	124	192
COc1cc(OC)c(C2=CCN(C(C)C)CC2)c2c1C(=O)/C(=C/c1ccc3ccccc3c1)O2 [NISOA1]	128 ± 17.9	112 ± 5.45	38.987	46.8	63.2	172
COc1cc(OC)c(C2=CCN(C(C)C)CC2)c2c1C(=O)/C(=C/c1ccccc1Br)O2 [NISOA2]	381 ± 28.1	234 ± 8.45	39.811	103	125	> 200
COc1cc(OC)c(C2=CCN(C(C)C)CC2)c2c1C(=O)/C(=C/c1ccccc1C)O2 [NISOA3]	284 ± 12.3	187 ± 8.03	43.654	70.4	89.5	> 200
COc1ccc(/C=C2\Oc3c(c(OC)cc(OC)c3C3=CCN(C(C)C)CC3)C2=O)cc1 [NISOA5]	129 ± 6.78	109 ± 9.23	39.054	39.6	55.4	167
COc1cc(OC)c(C2=CCN(C(C)C)CC2)c2c1C(=O)/C(=C/c1ccc(Cl)cc1)O2 [NISOA6]	183 ± 11.9	146 ± 14.8	36.546	43.9	41.8	179
COc1cc(OC)c(C2=CCN(C)CC2)c2c1C(=O)/C(=C/c1ccccc1)O2 [NMA1]	151 ± 3.54	131 ± 1.74	27.654	67.8	86.9	187
COc1cc(OC)c(C2=CCN(C)CC2)c2c1C(=O)/C(=C/c1ccccc1C)O2 [NMA3]	103 ± 7.78	89.8 ± 1.48	24.987	62.7	89	188
COc1cc(OC)c(C2=CCN(C)CC2)c2c1C(=O)/C(=C/c1ccc(N(C)C)cc1)O2 [NMA4]	154 ± 12.7	137 ± 6.23	29.543	63.8	89.5	> 200
COc1ccc(/C=C2\Oc3c(c(OC)cc(OC)c3C3=CCN(C)CC3)C2=O)cc1 [NMA5]	98.2 ± 1.99	87 ± 0.18	25.098	155	139	> 200
COc1ccc(/C=C2\Oc3c(c(OC)cc(OC)c3C3=CCN(C)CC3)C2=O)cc1OC [NMA6]	258 ± 8.83	200 ± 4.43	26.113	98.5	123	> 200
CCCN1CC=C(c2c(OC)cc(OC)c3c2O/C(=C\c2ccc4ccccc4c2)C3=O)CC1 [NPA1]	133 ± 19.1	101 ± 2.81	16.089	75	94.3	166
CCCN1CC=C(c2c(OC)cc(OC)c3c2O/C(=C\c2ccc(N(C)C)cc2)C3=O)CC1 [NPA2]	119 ± 12.9	99.3 ± 1.14	13.664	46.9	87.3	172
CCCN1CC=C(c2c(OC)cc(OC)c3c2O/C(=C\c2ccccc2Br)C3=O)CC1 [NPA3]	159 ± 13.9	123 ± 4.55	17.045	53.9	67.9	–
CCCN1CC=C(c2c(OC)cc(OC)c3c2O/C(=C\c2ccc(Cl)cc2)C3=O)CC1 [NPA4]	162.34 ± 0.06	134 ± 3.71	14.753	42.1	44	102
CCCN1CC=C(c2c(OC)cc(OC)c3c2O/C(=C\c2ccc(OC)c(OC)c2)C3=O)CC1 [NPA5]	89.7 ± 9.65	76.1 ± 1.75	12.547	68.5	74.3	99.9
O=c1c(O)c(-c2ccc(O)c(O)c2)oc2cc(O)cc(O)c12 [Quercetin, reference compound]	31.42 ± 0.09	39 ± 0.58	–	–	–	–
